# Experimental data from ChEMBL document CHEMBL4665643 (Bioorg Med Chem Lett, 2019).
# Assays:
# [1] = molecular target: Myosin light chain kinase, smooth muscle (Homo sapiens) (UniProt Q15746); assay: Inhibition of tracer 236 binding to recombinant human GST-tagged MYLK (1428 to 1771 residues) expressed in baculovirus expression system at 0.1 uM incubated for 60 mins by Lanthascreen assay relative to control
# [2] = molecular target: T1, Ephrin type-B receptor 2 (Homo sapiens) (UniProt P29323); assay: Inhibition of recombinant human GST-tagged EPHB2 (616 to 884 residues) expressed in baculovirus expression system using Tyr 02 as substrate at 0.1 uM incubated for 60 mins by Z'-Lyte assay relative to control
# T1 sequence (whole entry): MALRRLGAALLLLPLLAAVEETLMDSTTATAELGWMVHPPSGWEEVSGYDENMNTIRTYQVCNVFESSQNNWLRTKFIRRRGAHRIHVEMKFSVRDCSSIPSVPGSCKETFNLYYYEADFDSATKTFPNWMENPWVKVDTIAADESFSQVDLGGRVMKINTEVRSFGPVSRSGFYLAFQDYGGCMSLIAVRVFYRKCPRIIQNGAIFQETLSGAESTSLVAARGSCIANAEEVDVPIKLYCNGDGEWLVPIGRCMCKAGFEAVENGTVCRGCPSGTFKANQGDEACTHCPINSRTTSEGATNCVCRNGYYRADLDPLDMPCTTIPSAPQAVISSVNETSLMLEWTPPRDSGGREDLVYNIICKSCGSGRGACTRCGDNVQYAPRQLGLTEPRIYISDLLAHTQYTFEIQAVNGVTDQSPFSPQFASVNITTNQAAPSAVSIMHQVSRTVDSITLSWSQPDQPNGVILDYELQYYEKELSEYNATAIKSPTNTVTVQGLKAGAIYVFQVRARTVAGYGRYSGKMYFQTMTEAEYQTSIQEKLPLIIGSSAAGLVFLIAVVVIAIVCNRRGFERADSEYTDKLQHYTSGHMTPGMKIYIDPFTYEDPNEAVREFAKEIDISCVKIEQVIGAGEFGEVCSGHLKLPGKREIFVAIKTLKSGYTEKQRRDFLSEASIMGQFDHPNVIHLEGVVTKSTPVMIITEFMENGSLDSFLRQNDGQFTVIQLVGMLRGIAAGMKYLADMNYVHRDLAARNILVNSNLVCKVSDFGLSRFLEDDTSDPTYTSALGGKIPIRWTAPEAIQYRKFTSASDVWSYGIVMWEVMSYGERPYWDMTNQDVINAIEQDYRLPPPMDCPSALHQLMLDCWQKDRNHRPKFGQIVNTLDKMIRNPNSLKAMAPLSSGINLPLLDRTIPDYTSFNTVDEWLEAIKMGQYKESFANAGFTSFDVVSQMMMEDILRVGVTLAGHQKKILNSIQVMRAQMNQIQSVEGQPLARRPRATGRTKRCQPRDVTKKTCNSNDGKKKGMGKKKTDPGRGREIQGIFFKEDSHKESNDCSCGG
# [3] = molecular target: Tyrosine-protein kinase JAK1 (Homo sapiens, UniProt P23458); conditions: dose 0.1 µM, time 60.0 min
# Tyrosine-protein kinase JAK1, sequence (P23458 whole entry, the tested form may be a part): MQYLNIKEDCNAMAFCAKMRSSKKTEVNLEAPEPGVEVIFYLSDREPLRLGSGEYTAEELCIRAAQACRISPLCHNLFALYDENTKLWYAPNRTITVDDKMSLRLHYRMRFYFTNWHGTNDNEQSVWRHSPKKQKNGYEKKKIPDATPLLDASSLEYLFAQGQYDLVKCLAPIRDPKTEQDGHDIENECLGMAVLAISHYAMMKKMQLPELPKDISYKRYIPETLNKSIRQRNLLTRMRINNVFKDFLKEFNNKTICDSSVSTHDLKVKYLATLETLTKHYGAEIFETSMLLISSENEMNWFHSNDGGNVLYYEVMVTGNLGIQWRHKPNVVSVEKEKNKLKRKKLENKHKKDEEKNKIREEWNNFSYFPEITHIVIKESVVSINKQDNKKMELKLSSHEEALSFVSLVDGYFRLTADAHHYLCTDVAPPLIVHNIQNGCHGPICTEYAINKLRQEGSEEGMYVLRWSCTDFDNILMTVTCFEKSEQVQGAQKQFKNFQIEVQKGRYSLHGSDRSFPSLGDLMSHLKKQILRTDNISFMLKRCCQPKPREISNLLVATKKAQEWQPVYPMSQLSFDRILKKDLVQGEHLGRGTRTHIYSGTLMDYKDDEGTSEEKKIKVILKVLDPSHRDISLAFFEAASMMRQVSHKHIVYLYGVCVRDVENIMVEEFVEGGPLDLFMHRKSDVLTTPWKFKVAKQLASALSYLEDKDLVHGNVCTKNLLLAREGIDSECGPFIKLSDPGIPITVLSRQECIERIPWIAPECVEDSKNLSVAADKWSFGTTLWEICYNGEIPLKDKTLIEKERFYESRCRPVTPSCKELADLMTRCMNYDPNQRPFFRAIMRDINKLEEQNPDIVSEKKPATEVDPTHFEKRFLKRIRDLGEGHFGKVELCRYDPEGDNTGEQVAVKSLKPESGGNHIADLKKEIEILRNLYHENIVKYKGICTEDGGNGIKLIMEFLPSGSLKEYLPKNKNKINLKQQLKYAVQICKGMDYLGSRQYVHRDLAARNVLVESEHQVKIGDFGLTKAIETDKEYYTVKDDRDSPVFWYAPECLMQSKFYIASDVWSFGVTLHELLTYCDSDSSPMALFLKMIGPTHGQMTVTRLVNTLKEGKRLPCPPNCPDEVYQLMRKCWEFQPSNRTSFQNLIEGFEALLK
# [4] = molecular target: T2, Tyrosine-protein kinase JAK3 (Homo sapiens) (UniProt P52333); assay: Inhibition of recombinant human GST-tagged JAK3 (781 to 1124 residues) expressed in baculovirus expression system using Tyr 06 as substrate at 0.1 uM incubated for 60 mins by Z'-lyte assay relative to control
# T2 sequence (whole entry): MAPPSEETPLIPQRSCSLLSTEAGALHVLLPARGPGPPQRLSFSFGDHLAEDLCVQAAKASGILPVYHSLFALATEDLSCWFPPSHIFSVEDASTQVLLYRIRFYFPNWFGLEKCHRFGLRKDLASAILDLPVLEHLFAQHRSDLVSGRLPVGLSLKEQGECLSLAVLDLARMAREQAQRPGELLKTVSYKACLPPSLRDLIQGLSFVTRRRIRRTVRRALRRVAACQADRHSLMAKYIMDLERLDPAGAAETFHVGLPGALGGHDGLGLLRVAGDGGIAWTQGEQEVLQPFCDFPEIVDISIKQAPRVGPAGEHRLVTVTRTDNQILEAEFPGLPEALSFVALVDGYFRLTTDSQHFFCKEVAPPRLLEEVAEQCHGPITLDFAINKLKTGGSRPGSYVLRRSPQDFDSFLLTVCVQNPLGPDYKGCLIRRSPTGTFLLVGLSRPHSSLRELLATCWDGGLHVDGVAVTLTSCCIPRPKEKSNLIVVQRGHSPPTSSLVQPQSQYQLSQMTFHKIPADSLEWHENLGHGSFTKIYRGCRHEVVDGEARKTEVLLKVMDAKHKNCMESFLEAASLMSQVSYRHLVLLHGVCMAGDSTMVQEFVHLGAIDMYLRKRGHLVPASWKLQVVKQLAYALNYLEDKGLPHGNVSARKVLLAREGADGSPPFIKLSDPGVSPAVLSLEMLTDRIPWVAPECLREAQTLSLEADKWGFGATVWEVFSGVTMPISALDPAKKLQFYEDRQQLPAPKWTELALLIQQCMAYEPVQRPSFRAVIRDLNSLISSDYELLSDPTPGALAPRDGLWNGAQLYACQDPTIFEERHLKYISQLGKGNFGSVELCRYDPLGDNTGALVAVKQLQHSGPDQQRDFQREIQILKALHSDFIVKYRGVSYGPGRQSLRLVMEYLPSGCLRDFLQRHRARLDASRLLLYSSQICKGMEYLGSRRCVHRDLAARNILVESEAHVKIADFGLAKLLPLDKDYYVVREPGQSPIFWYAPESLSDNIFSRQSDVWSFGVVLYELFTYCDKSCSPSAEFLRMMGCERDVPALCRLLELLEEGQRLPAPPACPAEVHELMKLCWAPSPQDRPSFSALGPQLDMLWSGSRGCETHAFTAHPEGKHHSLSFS
# in vitro = conditions: dog, MDCK
# Description: Apparent permeability across apical to basolateral side in MDCK cells at 10 uM incubated upto 180 mins by LC/MS-MS analysis
# [5] = molecular target: Mitogen-activated protein kinase 1 (Homo sapiens) (UniProt P28482); assay: Inhibition of recombinant human GST-tagged full length ERK2 expressed in baculovirus expression system using Ser/Thr 03 as substrate at 0.1 uM incubated for 60 mins by Z'-Lyte assay relative to control
# Mitogen-activated protein kinase 1 (Homo sapiens), sequence (P28482 whole entry): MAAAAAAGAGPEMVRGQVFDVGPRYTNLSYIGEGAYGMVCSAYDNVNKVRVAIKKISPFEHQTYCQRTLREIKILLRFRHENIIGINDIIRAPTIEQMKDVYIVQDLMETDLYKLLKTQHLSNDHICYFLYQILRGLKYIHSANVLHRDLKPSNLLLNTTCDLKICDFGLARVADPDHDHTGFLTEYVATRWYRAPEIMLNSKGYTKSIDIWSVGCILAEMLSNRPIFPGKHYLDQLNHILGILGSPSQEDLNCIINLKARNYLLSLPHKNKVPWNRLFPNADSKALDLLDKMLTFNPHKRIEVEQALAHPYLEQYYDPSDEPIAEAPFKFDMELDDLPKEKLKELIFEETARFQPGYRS
# [6] = molecular target: Serine/threonine-protein kinase pim-1 (Homo sapiens) (UniProt P11309); assay: Inhibition of recombinant human His-tagged full length PIM1 expressed in baculovirus expression system using Ser/Thr 07 as substrate at 0.1 uM incubated for 60 mins by Z'-lyte assay relative to control
# [7] = molecular target: Tyrosine-protein kinase Yes (Homo sapiens) (UniProt P07947); assay: Inhibition of recombinant human GST-tagged full length YES expressed in baculovirus expression system using Tyr 02 as substrate at 0.1 uM incubated for 60 mins by Z'-Lyte assay relative to control
# Tyrosine-protein kinase Yes (Homo sapiens), sequence (P07947 2-543 limits assumed): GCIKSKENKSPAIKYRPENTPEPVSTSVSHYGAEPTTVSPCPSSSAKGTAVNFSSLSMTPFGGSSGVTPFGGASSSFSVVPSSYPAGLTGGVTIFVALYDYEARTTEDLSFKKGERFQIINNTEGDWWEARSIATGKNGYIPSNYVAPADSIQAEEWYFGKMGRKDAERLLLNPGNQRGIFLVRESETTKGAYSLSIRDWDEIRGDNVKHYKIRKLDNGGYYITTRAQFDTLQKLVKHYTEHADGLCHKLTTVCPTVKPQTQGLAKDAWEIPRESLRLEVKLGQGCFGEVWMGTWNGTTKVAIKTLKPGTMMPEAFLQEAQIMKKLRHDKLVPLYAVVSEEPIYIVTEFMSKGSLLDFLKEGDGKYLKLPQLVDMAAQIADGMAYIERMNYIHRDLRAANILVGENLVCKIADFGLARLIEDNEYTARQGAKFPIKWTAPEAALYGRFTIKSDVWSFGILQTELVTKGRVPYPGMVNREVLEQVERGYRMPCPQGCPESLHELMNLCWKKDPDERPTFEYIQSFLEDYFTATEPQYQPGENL
# [8] = molecular target: Ephrin type-A receptor 4 (Homo sapiens) (UniProt P54764); assay: Inhibition of recombinant human GST-tagged EPHA4 (616 to 887 residues) expressed in baculovirus expression system using Tyr 02 as substrate at 0.1 uM incubated for 60 mins by Z'-Lyte assay relative to control
# Ephrin type-A receptor 4 (Homo sapiens), sequence (P54764 whole entry, the tested form may be a part): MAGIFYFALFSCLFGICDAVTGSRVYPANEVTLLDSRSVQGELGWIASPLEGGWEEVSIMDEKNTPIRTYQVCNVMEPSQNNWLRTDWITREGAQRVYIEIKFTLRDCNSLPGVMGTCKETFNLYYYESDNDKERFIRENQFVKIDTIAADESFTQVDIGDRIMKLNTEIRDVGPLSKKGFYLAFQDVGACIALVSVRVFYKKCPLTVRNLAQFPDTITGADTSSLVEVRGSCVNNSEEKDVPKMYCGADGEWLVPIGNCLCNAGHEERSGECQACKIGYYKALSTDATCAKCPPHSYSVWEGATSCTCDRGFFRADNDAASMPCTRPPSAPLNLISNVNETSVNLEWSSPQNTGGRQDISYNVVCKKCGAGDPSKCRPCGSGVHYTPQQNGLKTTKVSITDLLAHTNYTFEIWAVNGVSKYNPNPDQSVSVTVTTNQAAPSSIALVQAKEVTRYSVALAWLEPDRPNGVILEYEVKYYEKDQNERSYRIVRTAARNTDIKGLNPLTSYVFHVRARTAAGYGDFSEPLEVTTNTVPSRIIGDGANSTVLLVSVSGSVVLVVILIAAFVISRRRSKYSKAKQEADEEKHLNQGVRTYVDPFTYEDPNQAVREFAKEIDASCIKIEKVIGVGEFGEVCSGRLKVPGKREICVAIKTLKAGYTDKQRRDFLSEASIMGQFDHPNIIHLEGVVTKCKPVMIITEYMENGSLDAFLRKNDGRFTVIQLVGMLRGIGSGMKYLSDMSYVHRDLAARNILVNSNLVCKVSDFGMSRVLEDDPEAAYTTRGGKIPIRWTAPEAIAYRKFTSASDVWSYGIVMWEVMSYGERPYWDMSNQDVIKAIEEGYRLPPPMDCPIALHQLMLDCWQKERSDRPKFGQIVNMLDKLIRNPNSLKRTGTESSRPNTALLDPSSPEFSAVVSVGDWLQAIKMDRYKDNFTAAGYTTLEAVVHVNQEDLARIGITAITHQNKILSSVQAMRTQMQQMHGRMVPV
# Myosin light chain kinase, smooth muscle (Homo sapiens), sequence (Q15746 whole entry, the tested form may be a part): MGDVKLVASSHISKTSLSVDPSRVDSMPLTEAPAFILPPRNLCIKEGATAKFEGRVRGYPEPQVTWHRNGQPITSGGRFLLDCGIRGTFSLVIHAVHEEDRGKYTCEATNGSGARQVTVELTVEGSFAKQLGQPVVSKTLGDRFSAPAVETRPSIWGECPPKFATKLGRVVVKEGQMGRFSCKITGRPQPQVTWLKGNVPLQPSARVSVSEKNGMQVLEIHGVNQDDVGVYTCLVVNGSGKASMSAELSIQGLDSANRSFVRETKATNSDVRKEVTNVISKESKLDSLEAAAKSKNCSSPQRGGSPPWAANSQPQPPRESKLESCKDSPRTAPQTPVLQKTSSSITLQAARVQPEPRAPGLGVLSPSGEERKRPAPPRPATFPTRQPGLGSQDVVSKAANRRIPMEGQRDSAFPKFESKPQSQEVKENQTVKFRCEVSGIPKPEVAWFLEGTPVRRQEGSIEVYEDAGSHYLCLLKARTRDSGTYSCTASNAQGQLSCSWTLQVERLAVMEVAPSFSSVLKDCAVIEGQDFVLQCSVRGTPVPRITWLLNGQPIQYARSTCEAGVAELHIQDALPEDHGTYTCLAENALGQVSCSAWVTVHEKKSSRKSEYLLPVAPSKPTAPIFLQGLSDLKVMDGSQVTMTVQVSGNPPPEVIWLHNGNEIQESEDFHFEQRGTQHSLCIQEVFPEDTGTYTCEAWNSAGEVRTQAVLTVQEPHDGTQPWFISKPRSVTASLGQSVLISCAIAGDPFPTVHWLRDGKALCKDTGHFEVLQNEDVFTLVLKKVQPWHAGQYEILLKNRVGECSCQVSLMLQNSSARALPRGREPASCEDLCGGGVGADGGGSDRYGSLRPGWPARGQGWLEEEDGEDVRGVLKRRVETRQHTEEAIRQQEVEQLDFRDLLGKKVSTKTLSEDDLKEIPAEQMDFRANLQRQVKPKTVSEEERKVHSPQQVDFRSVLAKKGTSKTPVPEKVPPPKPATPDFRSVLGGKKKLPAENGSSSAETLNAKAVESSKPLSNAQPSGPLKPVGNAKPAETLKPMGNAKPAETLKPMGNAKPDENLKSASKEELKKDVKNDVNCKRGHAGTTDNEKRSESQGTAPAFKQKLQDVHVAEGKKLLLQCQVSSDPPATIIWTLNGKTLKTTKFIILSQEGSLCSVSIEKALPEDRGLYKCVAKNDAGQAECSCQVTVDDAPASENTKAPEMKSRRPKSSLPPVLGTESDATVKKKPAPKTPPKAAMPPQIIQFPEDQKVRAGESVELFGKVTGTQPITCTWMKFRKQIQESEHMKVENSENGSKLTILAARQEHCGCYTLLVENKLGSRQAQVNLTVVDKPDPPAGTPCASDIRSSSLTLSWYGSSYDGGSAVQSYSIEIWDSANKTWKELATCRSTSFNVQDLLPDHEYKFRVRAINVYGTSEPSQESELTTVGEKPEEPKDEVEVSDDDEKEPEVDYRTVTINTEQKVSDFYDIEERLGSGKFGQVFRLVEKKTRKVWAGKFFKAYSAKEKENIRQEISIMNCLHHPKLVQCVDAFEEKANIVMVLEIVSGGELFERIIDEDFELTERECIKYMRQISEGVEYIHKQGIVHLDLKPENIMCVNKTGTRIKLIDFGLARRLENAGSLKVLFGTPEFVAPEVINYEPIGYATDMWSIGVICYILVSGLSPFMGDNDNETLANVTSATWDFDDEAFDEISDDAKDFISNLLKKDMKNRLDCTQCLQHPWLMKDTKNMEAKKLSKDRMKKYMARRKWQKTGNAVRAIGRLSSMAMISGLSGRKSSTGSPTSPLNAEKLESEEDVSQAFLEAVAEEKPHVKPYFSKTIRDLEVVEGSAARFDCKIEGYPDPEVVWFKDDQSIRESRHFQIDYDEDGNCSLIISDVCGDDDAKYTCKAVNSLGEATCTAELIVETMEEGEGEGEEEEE
Structure (SMILES),inhibition [1] [%],inhibition [2] [%],inhibition [3] [%],inhibition [4] [%],"Papp A→B at 3 h, 10 µM (in vitro) [×10⁻⁶ cm/s]",inhibition [5] [%],inhibition [6] [%],inhibition [7] [%],inhibition [8] [%]
Cn1cc(NC(=O)c2cnn3cccnc23)c(-c2cc(Cl)ccc2OC(F)F)n1,11,1,96,98,14,4,6,30,4
O=C(Nc1c[nH]nc1-c1cc(Cl)ccc1OC(F)F)c1cnn2cccnc12,2,10,100,95,14,1,4,32,-4
O=C(Nc1c[nH]nc1-c1cc2ccccc2cc1OC(F)F)c1cnn2cccnc12,0,-3,96,94,13,-4,4,33,3
